Experimental data published in patent EP1208096B1, “SUBSTITUTED PYRIDAZINES AND FUSED PYRIDAZINES WITH ANGIOGENESIS INHIBITING ACTIVITY” (Bayer Corporation, priority 1999, dated 2001).

Molecular target: T1, NIH3T3 cells expressing the full length KDR receptor (Homo sapiens, UniProt P35968)
T1 construct: NIH3T3 cells expressing the full length KDR receptor; expressed in transfected cells; host or cells: NIH3T3 cells (G418 selection)
Test: Cell mechanistic assay - Inhibition of 3T3 KDR phosphorylation
Format: cell-based
Conditions: VEGF (30 ng / ml) for 10 minutes after 30 minutes with compound; KDR phosphotyrosine ELISA
Protocol: NIH3T3 cells expressing the full length KDR receptor were grown in DMEM (Life Technologies, Inc., Grand Island, NY) supplemented with 10% newborn calf serum, low glucose, 25 mM /L sodium pyruvate, pyridoxine hydrochloride and 0.2 mg/ ml of G418 (Life Technologies Inc., Grand Island, NY). The cells were maintained in collagen I-coated T75 flasks (Becton Dickinson Labware, Bedford, MA) in a humidified 5% CO2 atmosphere at 37°C.
Fifteen thousand cells were plated into each well of a collagen I-coated 96-well plate in the DMEM growth medium. Six hours later, the cells were washed and the medium was replaced with DMEM without serum. After overnight culture to quiesce the cells, the medium was replaced by Dulbecco's phosphate-buffered saline (Life Technologies Inc., Grand Island, NY) with 0.1% bovine albumin (Sigma Chemical Co., St Louis, MO). After adding various concentrations (0-300 nM) of test compounds to the cells in 1% final concentration of DMSO, the cells were incubated at room temperature for 30 minutes. The cells were then treated with VEGF (30 ng / ml) for 10 minutes at room temperature. Following VEGF stimulation, the buffer was removed and the cells were lysed by addition of 150 µl of extraction buffer (50 mM Tris, pH 7.8, supplemented with 10% glycerol, 50 mM BGP, 2 mM EDTA, 10 mM NaF, 0.5 mM NaVO4, and 0.3% TX-100) at 4°C for 30 minutes.
To assess receptor phosphorylation, 100 microliters of each cell lysate was added to the wells of an ELISA plate precoated with 300 ng of antibody C20 (Santa Cruz Biotechnology, Inc., Santa Cruz , CA). Following a 60-minute incubation, the plate was washed and bound KDR was probed for phosphotyrosine using an anti-phosphotyrosine mAb clone 4G10 (Upstate Biotechnology, Lake Placid, NY). The plate was washed and wells were incubated with anti-mouse IgG/HRP conjugate (Amersham International plc, Buckinghamshire, England) for 60 minutes. Wells were washed and phosphotyrosine was quantitated by addtion of 100 µl per well of 3,3',5,5' tetramethylbenzidine (Kirkegaard and Perry, TMB Microwell 1 Component peroxidase substrate) solution. Color development was arrested by the addition of 100 µl 1% HCl based stop solution (Kirkegaard and Perry, TMB 1 Component Stop Solution).
Optical densities (OD) were determined spectrophotometrically at 450 nm in a 96-well plate reader (SpectraMax 250, Molecular Devices). Background (no VEGF added) OD values were subtracted from all ODs and percent inhibition was calculated according to the equation: % Inhibition =((OD(VEGF control) - OD(with test compound)) X 100)/(OD(VEGF control) - OD(no VEGF added)) [formula]
IC50s were determined with a least squares analysis program using compound concentration versus percent inhibition. Compounds that have IC50 < 20 nM in this assay include those of Examples 2, 6, 7, 11, 15 and 16. Compounds that have IC50 values between 20 nM and 50 nM include those of examples 1, 4, 5, 8, 10, 12, 13 and 14. Those that have measured IC50 values > 50 nM include those of examples 9 and 21.

T1 sequence (P35968 20-1356): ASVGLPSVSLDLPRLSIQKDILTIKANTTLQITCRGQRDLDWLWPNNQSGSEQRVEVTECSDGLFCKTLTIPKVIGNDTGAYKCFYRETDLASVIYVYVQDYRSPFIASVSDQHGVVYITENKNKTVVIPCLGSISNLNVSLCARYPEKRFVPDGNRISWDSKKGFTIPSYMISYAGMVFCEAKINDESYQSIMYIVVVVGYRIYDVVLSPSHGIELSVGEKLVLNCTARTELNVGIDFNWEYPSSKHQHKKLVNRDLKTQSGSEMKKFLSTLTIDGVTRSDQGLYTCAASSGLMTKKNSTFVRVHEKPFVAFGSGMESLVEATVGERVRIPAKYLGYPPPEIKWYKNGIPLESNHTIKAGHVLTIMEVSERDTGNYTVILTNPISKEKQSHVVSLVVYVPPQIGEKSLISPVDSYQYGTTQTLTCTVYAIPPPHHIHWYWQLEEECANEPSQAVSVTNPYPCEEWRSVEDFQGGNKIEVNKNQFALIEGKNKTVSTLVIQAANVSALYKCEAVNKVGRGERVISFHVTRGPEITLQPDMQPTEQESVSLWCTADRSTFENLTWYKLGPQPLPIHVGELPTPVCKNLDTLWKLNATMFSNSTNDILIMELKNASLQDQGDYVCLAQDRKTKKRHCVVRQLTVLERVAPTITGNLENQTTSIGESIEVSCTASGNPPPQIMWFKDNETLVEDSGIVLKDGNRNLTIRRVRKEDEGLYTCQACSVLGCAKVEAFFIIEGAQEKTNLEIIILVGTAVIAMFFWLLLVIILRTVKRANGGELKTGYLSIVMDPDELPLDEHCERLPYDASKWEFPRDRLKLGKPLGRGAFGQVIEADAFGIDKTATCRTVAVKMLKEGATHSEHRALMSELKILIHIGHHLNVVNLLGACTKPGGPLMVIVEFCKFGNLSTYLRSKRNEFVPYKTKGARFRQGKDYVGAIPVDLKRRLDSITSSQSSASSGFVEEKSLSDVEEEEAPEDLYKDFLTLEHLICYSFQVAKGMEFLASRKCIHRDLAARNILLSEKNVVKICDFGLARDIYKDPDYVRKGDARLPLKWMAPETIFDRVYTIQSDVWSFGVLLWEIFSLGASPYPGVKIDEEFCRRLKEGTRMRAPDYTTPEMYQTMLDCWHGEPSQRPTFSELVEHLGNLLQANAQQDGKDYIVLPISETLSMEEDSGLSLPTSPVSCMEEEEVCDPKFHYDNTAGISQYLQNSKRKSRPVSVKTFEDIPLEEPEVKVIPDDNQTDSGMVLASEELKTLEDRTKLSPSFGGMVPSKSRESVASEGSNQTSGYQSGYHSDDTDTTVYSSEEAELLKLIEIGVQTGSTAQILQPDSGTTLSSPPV

CNC(=O)c1cc(Cc2nnc(Nc3ccc(Cl)cc3)c3ccccc23)ccn1 [Example 1, 4-[4-(4-Chlorophenylamino)phthalazin-1-ylmethyl]pyridin-2-yl carboxylic acid methylamide]
IC50: 20 to 50 nM
